Values quoted from earlier work in patent EP0602619A1, “Controlled-release pharmaceutical compositions containing nicergoline” (INVERNI DELLA BEFFA FARMACEUTICI S.r.l., priority 1992, dated 1994).

SMILES: CO[C@]12C[C@@H](COC(=O)c3cncc(Br)c3)CN(C)[C@@H]1Cc1cn(C)c3cccc2c13 [Nicergoline, 8-β-1,6-dimethyl-[(5-bromonicotinoyloxy)methyl]-10α-methoxyergoline]
- period of excretion of the administered dose (humans, urine and feces): 3 to 4 days
- half-life (in vivo): very short
